Results as given in patent US20080255162A1, “Pyrrolyl Substituted Pyrido[2,3-D]Pyrimidin-7-Ones and Derivatives Thereof as Therapeutic Agents” (WARNER-LAMBERT COMPANY LLC, priority 2004, published 2008).

Legend:
[1] = target: T1, PI3Kγ (purified recombinant p101/p110γ protein) (Homo sapiens, UniProt P48736); experiment: PI3Kγ In Vitro Kinase Assay; format: biochemical; conditions: final ATP 20 μM, 25 μM PIP2, G protein β1/γ2 subunits, 20 minutes at room temperature
T1 construct: HA; made in house; host or cells: Spodoptera frugiperda Sf9 cells (baculovirus co-infection)
T1 sequence (P48736 whole entry, species assumed): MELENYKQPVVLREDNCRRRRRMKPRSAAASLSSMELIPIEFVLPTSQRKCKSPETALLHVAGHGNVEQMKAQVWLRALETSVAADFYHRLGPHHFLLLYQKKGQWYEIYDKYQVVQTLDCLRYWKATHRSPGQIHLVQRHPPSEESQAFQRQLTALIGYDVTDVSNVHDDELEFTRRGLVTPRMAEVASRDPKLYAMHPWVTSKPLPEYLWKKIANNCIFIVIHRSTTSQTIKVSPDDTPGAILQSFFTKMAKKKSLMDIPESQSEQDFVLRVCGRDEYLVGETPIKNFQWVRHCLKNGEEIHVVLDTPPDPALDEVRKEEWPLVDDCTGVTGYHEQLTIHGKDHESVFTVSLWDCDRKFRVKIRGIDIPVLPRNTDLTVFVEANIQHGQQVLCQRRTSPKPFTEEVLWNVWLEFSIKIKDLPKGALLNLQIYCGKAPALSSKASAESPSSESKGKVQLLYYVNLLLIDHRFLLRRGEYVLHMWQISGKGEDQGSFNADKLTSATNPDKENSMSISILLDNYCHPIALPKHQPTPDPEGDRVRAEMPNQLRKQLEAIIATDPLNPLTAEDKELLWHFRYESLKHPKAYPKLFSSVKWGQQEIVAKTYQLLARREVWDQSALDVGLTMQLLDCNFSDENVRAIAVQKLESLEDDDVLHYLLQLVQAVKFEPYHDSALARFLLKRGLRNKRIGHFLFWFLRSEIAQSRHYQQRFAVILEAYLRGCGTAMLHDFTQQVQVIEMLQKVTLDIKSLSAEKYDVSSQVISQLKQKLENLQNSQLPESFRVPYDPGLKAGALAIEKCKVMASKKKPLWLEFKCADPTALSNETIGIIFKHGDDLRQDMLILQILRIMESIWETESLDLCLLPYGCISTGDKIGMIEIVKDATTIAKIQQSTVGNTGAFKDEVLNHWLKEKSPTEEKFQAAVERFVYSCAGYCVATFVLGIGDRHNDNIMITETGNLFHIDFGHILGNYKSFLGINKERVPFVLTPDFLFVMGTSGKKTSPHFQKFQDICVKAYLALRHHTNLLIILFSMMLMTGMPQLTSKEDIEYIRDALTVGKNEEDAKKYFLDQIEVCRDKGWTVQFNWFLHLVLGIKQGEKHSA
T1 sequence (Q8WYR1 whole entry partner, species assumed): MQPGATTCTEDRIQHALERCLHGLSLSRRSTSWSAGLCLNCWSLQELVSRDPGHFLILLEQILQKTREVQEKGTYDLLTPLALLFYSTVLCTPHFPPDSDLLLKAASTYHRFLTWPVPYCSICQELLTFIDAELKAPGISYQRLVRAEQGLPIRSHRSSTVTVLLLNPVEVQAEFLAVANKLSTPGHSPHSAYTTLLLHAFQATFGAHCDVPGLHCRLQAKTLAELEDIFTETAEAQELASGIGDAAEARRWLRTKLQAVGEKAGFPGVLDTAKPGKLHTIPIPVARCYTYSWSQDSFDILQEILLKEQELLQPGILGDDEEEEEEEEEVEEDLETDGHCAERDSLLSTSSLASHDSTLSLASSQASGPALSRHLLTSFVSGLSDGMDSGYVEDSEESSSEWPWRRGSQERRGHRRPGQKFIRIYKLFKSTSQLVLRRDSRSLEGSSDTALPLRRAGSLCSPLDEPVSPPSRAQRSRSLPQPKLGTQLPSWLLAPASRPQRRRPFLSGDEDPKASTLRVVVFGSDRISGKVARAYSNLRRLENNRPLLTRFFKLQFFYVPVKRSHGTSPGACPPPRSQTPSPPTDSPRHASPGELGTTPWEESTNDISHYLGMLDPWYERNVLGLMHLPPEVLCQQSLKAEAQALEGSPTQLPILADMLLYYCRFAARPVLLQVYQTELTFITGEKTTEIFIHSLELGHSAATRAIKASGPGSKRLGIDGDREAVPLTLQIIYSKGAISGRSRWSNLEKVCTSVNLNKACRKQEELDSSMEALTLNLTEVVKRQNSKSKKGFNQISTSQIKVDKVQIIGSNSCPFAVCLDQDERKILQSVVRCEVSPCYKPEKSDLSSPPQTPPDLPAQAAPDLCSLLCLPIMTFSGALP
Method: Spodtera frugiperda cells, grown in ESF921 media, were co-infected with baculovirus expressing a glu-tagged p101 and baculovirus expressing an HA-tagged p110γ, at a 3:1 ratio of p101 baculovirus to p110γ baculovirus. Sf9 cells were grown to 1×10^7 total cells/mL in 10 L bioreactors and harvested 48-72 hours post infection. Samples of infected cells were then tested for expression of p101/p110γ PI3 kinase by immunoprecipitation and Western Blot analysis methods (see below).
To purify PI3Kγ, 4 volumes of room temperature hypotonic lysis buffer (1 mM MgCl2, 1 mM DTT, 5 mM EGTA, 1 mM Pefabloc, 0.5 μM aprotinin, 5 μM leupeptin, 2 μM pepstatin, 5 μM E64, pH 8) per gram of cell paste, was poured onto frozen cell pellets with stirring, then lysed in a nitrogen “bomb” at 400 psi (599HC T316, Parr Instrument Co, Moline, Ill.). NaCl was added to 150 mM, and sodium cholate was added to 1% and mixed for another 45 minutes. The lysates were clarified by centrifugation for 25 minutes at 14,000 rpm. The lysates were then loaded over anti-glu-linked Protein-G Sepaharose beads (Covance Research Products, Richmond, Calif.) using 20 mL resin/50 g cell paste. The column was washed with 15 volumes of wash buffer (1 mM DTT, 0.2 mM EGTA, 1 mM Pefabloc, 0.5 μM aprotinin, 5 μM leupeptin, 2 μM pepstatin, 5 μM E64, 150 mM NaCl, 1% sodium cholate, pH 8). PI3Kγ was eluted with 6 column volumes of wash buffer that contain 100 μg/mL of a peptide that competes for binding of the glu tag. The column fractions with the eluted protein (determined by taking OD280 readings) were collected and dialyzed in 0.2 mM EGTA, 1 mM DTT, 1 mM Pefabloc, 5 μM leupeptin, 0.5% sodium cholate, 150 mM NaCl, and 50% glycerol, pH 8. The fractions were stored at −80° C. until further use.
Spodtera frugiperda cells were coinfected with baculovirus expressing a glu-tagged G protein β1 and baculovirus expressing a G protein β2, at a 1:1 ratio of glu-tagged G protein β1 baculovirus to G protein β2 baculovirus. Sf9 cells are grown in 10 L bioreactors and harvested 48-72 hours post infection. Samples of infected cells were tested for G protein β1/β2 expression by Western Blot analysis, as described below. Cell lysates were homogenized and loaded onto a column of glu-tagged beads as in Biological Example 1 and competed off the column with a glu peptide and processed as described in Biological Example 1.
The inhibitory properties of the compounds in Table 1 were assayed in an in vitro PI3K assay. In a 96-well polypropylene plate, each well was spotted with 2 μL of 50 times the desired final concentration of compound in DMSO. Purified recombinant p101/p110γ protein (0.03 μg; ˜2.7 nM) and G protein β1/γ2 subunits (0.09 μg; ˜57.7 nM) for each reaction was combined in the assay buffer (30 mM HEPES, 100 mM NaCl, 1 mM EGTA, and 1 mM DTT). ATP and [γ-^32P-ATP] (0.09 μCi) were added to this mixture so that the final ATP concentration in the reaction was 20 μM. Lipid micelles were formed by sonicating phosphatidylinositol-4,5-diphosphate (PIP2), phosphatidylethanolamine (PE), and Na-cholate in the assay buffer for 10 minutes, adding MgCl2 and incubating on ice for 20 minutes, for final concentrations of 25 μM PIP2, 300 μM PE, 0.02% Na-cholate, and 10 mM MgCl2 in the reaction. The reactions were started by adding equal volumes lipid and enzyme mixture in a total volume of 50 μL, allowed to run for 20 minutes at room temperature, and stopped with 100 μL 75 mM H3PO4. The lipid product was transferred to a glass fiber filter plate and washed with 75 mM H3PO4 several times. The presence of radioactive lipid product (PIP3) was measured by adding Wallac Optiphase mix to each well and counting in a Wallac 1450 Trilux plate reader (PerkinElmer Life Sciences Inc., Boston, Mass. 02118). The IC50 for each compound tested is reported in μM in the Table 2: […]

CDK2/cyclin A = CDK2/cyclin A (Homo sapiens, UniProt P24941); experiment: CDK2/cyclinA In Vitro Kinase Assay; format: biochemical; conditions: 10 μM of each compound; Histone H1 substrate; 0.02 mM ATP; activity as percentage of controls with DMSO alone, mean of duplicates
Method: The inhibitory properties of the compounds of Examples 19, 24, and 31 were assayed in an in vitro CDK2/cyclinA assay at 10 μM of each compound in DMSO. CDK2/cyclin A (5-20 mU diluted in 50 mM Hepes pH 7.5, 1 mM DTT, 0.02% Brij35, 100 mM NaCl) was assayed against Histone H1 in a final volume of 25.5 μl containing 50 mM Hepes pH7.5, 1 mM DTT, 0.02% Brij35, 100 mM NaCl, Histone H1 (1 mg/ml), 10 mM magnesium acetate and 0.02 mM [^33P-γ-ATP](500-1000 cpm/pmole) and incubated for 30 min at room temperature. Assays were stopped by addition of 5 μl of 0.5 M (3%) orthophosphoric acid and then harvested onto P81 Unifilter plates and washed with 50 mM orthophosphoric acid. The filter plates were then counted in a scintillation counter.
The results in Table 3 are expressed as percentage of controls with DMSO alone (mean of duplicates ±the standard deviation from the mean).

Row | SMILES | IC50 [1] | % of DMSO control (mean ± S.D.) (CDK2/cyclin A)
1 | COC(=O)c1cc(Nc2nc(C)c3ccc(=O)n(C4CCOCC4)c3n2)cn1C [Example 5, 1-Methyl-4-[4-methyl-7-oxo-8-(tetrahydro-pyran-4-yl)-7,8-dihydro-pyrido[2,3-d]pyrimidin-2-ylamino]-1H-pyrrole-2-carboxylic acid methyl ester] | 24 nM | 
2 | COCCn1c(=O)c(Br)cc2c(C)nc(Nc3cc(C(=O)O)n(C)c3)nc21 [Example 32, 4-[6-Bromo-8-(2-methoxy-ethyl)-4-methyl-7-oxo-7,8-dihydro-pyrido[2,3-d]pyrimidin-2-ylamino]-1-methyl-1H-pyrrole-2-carboxylic acid] | 5 nM | 
3 | CCOC(=O)c1cc(Nc2nc(C)c3ccc(=O)n(C4CCCCCC4)c3n2)cn1Cc1ccccc1 [Example 7, 1-Benzyl-4-(8-cycloheptyl-4-methyl-7-oxo-7,8-dihydro-pyrido[2,3-d]pyrimidin-2-ylamino)-1H-pyrrole-2-carboxylic acid ethyl ester] | 36 nM | 
4 | Cc1nc(Nc2cc(C(=O)O)n(C)c2)nc2c1ccc(=O)n2C1CC1 [Example 18, 4-(8-Cyclopropyl-4-methyl-7-oxo-7,8-dihydro-pyrido[2,3-d]pyrimidin-2-ylamino)-1-methyl-1H-pyrrole-2-carboxylic acid] | 185 nM | 
5 | COC(=O)c1cc(Nc2nc(C)c3ccc(=O)n(C4CC4)c3n2)cn1C [Example 3, 4-(8-Cyclopropyl-4-methyl-7-oxo-7,8-dihydro-pyrido[2,3-d]pyrimidin-2-ylamino)-1-methyl-1H-pyrrole-2-carboxylic acid methyl ester] | 18 nM | 
6 | CCOC(=O)c1cc(Nc2nc(C)c3ccc(=O)n(C)c3n2)cn1C(C)c1ccccc1 (centres unmarked) [Example 2, 4-(4,8-Dimethyl-7-oxo-7,8-dihydro-pyrido[2,3-d]pyrimidin-2-ylamino)-1-(1-phenyl-ethyl)-1H-pyrrole-2-carboxylic acid ethyl ester] | 63 nM | 
7 | CCc1nc(Nc2cc(C(=O)O)n(C)c2)nc2c1ccc(=O)n2C1CCCCCC1 [Example 20, 4-(8-Cycloheptyl-4-ethyl-7-oxo-7,8-dihydro-pyrido[2,3-d]pyrimidin-2-ylamino)-1-methyl-1H-pyrrole-2-carboxylic acid] | 1600 nM | 
8 | Cc1nc(Nc2cc(C(=O)O)n(C(C)c3ccccc3)c2)nc2c1ccc(=O)n2C (centres unmarked) [Example 16, 4-(4,8-Dimethyl-7-oxo-7,8-dihydro-pyrido[2,3-d]pyrimidin-2-ylamino)-1-(1-phenyl-ethyl)-1H-pyrrole-2-carboxylic acid] | 148 nM | 
9 | Cc1nc(Nc2cc(C(=O)O)n(C)c2)nc2c1ccc(=O)n2C1CCC1 [Example 21, 4-(8-Cyclobutyl-4-methyl-7-oxo-7,8-dihydro-pyrido[2,3-d]pyrimidin-2-ylamino)-1-methyl-1H-pyrrole-2-carboxylic acid] | 55 nM | 

Continued, values first:

Row | IC50 [1] | % of DMSO control (mean ± S.D.) (CDK2/cyclin A) | SMILES
10 | 5 nM | 104 ± 1% | CCn1c(=O)c(Cl)cc2c(C)nc(Nc3cc(C(=O)O)n(C)c3)nc21 [Example 31, 4-(6-Chloro-8-ethyl-4-methyl-7-oxo-7,8-dihydro-pyrido[2,3-d]pyrimidin-2-ylamino)-1-methyl-1H-pyrrole-2-carboxylic acid]
11 | 8 nM |  | COC(=O)c1cc(Nc2nc(C)c3cc(F)c(=O)n(CC4CCOCC4)c3n2)cn1C [Example 10, 4-[6-Fluoro-4-methyl-7-oxo-8-(tetrahydro-pyran-4-ylmethyl)-7,8-dihydro-pyrido[2,3-d]pyrimidin-2-ylamino]-1-methyl-1H-pyrrole-2-carboxylic acid methyl ester]
12 | 9 nM | 85 ± 9% | Cc1nc(Nc2cc(C(=O)O)n(C)c2)nc2c1cc(F)c(=O)n2C1CCCC1 [Example 24, 4-(8-Cyclopentyl-6-fluoro-4-methyl-7-oxo-7,8-dihydro-pyrido[2,3-d]pyrimidin-2-ylamino)-1-methyl-1H-pyrrole-2-carboxylic acid]
13 | 34 nM | 101 ± 6% | Cc1nc(Nc2cc(C(=O)O)n(C)c2)nc2c1ccc(=O)n2C1CCOCC1 [Example 19, 1-Methyl-4-[4-methyl-7-oxo-8-(tetrahydro-pyran-4-yl)-7,8-dihydro-pyrido[2,3-d]pyrimidin-2-ylamino]-1H-pyrrole-2-carboxylic acid]
14 | 25 nM |  | COC(=O)c1cc(Nc2nc(C)c3ccc(=O)n(C4CCCCCC4)c3n2)cn1C [Example 1, 4-(8-Cycloheptyl-4-methyl-7-oxo-7,8-dihydro-pyrido[2,3-d]pyrimidin-2-ylamino)-1-methyl-1H-pyrrole-2-carboxylic acid methyl ester]
